Measured values published in patent US6576247B1, “Sustained-release aromatic and method of detecting micro-organism by using the same” (Kanebo Ltd. and T. Hasegawa Co. Ltd., priority 1994, dated 2003).

Columns and labels:
[1] = system: Coryneform bacteria (Corynebacterium); test: Glycoside decomposition ability test of Coryneform bacteria; type: cell-based; conditions: for Detected component and its amount: 2-phenylethyl alcohol: 32° C., glycoside 0.5% by weight in SCD liquid medium, GC-FID
Description: Each of the glycosides synthesized in Synthesis Examples 1 to 3 was added to a soybean casein digest liquid medium (SCD liquid medium) at an amount of 0.5% by weight based on the medium. To the liquid medium was inoculated 2% of bacterial liquid of Coryneform bacteria which had been precultured in an SCD liquid medium. This was cultured at 32° C. in a static state. The culture liquid was sampled after 2 days and 4 days culture and sterizing treatment was conducted on a conventional manner. After the sterizing treatment, aroma components were extracted with the same volume of diethyl ether as that of the culture liquid sampled. The structure of the components was identified on a GC-MS. The amount of the components released was determined on a GC with a detector of FID.

[2] = system: Saccharomyces cerevesiae; test: Perfume glycoside decomposition ability test of bread yeast; type: cell-based; conditions: glycoside 0.5% by weight in 15% sucrose solution, yeast 7% by weight, 4° C.
Description: Saccharomyces cerevesiae which had been cultured at 30° C. for 1 hour was added, at a concentration of 7% by weight, to a 15% by weight sucrose aqueous solution each containing the glycosides prepared in Synthesis Examples 2, 4 or 5 in an amount of 0.5% by weight. This was cultured at 4° C. while shaked. After 15 minutes and 4 hours culture, the culture liquid was sampled and centrifuged to precipitate the yeast. The supernatant was then extracted with the same volume of diethyl ether as that of the supernatant. The structure of the aroma components was identified on a GC-MS. The amount of the component released was determined on a GC with a detector of FID.

With `OC[C@H]1O[C@H](OCCc2ccccc2)[C@H](O)[C@@H](O)[C@@H]1O` [2-phenylethylglucoside (α-form), 2-Phenylethyl Glucoside (α-form)] as the compound, how does the “Detected component and its amount: 2-phenylethyl alcohol” value ([1]; after 2 days culture) read?
The value was 0.01 peak area × 10^6.

And the “Detected component and its amount: 2-phenylethyl alcohol” value ([1]; after 4 days culture)?
The value was 0.3 peak area × 10^6.

And the “Amount of aroma components” value ([2]; after 15 minutes culture)?
Its value is 0.4 peak area × 10^5.

What about the “Amount of aroma components” value ([2]; after 4 hours culture) of the same compound?
Its value is 1.6 peak area × 10^5.

What does the source list for `OC[C@H]1O[C@@H](OCCc2ccccc2)[C@H](O)[C@@H](O)[C@@H]1O` [2-phenylethylglucoside (β-form), 2-Phenylethyl Glucoside (βform)]?
Detected component and its amount: 2-phenylethyl alcohol ([1]; after 2 days culture): 1.1 peak area × 10^6; Detected component and its amount: 2-phenylethyl alcohol ([1]; after 4 days culture): 8.0 peak area × 10^6

What does the source list for `CC(C)=CCCC(C)CCO[C@@H]1O[C@H](CO)[C@@H](O)[C@H](O)[C@H]1O` (stereo partly drawn) [citronellyl glucoside (β-form), Citronellyl Glucoside (β-form)]?
Amount of aroma components ([2]; after 15 minutes culture): 2.6 peak area × 10^5; Amount of aroma components ([2]; after 4 hours culture): 8.8 peak area × 10^5

How did the “Amount of aroma components” value ([2]; after 15 minutes culture) turn out when `C=CCc1ccc(O[C@@H]2O[C@H](CO)[C@@H](O)[C@H](O)[C@H]2O)c(OC)c1` [eugenyl glucoside (β-form), Eugenyl Glucoside (β-form)] was run?
Its value is 0.5 peak area × 10^5.

And the “Amount of aroma components” value ([2]; after 4 hours culture)?
Its value is 1.3 peak area × 10^5.

Which “Detected component and its amount: vanillin” value ([1]; after 2 days culture) does the source give for `COc1cc(C=O)ccc1O[C@@H]1O[C@H](CO)[C@@H](O)[C@H](O)[C@H]1O` [glucovanillin (β-form), Glucovanillin (β-form)] here?
Its value is 0.01 peak area × 10^6.

And the “Detected component and its amount: vanillyl alcohol” value ([1]; after 2 days culture)?
The value was 0 peak area × 10^6.

What about the “Detected component and its amount: vanillin” value ([1]; after 4 days culture) of the same compound?
The value was 1.75 peak area × 10^6.

What about the “Detected component and its amount: vanillyl alcohol” value ([1]; after 4 days culture) of the same compound?
Its value is 0.2 peak area × 10^6.
